One compound from publication PMC7852560 (Neuropsychopharmacology, 2020) can be followed below.

In general, half-life refers to the time in which the quantity being followed falls by half. Lower therefore signals fast loss. By microsomal CLint is commonly meant a measure of how fast metabolising enzymes remove a compound, apart from limits set by blood flow. Low values mean greater metabolic stability, high ones faster metabolism.

“And” between values parts separate entries of the source, which are not always exact repeats. Identical values can stand only once. Like-named read-outs stand apart in the source and are kept apart here.

Series [1] has as its target Dopamine D1 (Homo sapiens, UniProt P21728). The experiment in a line: SafetyScreen44 panel: Dopamine D1. The series is classed as binding. As to conditions: 1 µM. The procedure: (§1) The screen assesses the selectivity of the compound on a diverse panel of targets that includes GPCRs, drug transporters, ion channels, nuclear receptors, kinases, and other non-kinase enzymes. The screen employs radioligand binding or enzyme assays for these 44 targets.
(§2) For receptor assays, binding was calculated as percent inhibition of the binding of a radioactively labeled ligand specific for each target. For enzyme assays, the inhibition effect was calculated as percent inhibition of control enzyme activity. Tests were performed in duplicate, and results are averages of those two tests. See https://www.eurofinsdiscoveryservices.com.

The target of series [2] is T1, CB1R (Homo sapiens, UniProt P21554). The experiment in a line: cell-based. Details: beta-galactosidase enzyme fragment (EFC; ProLink by own knowledge). As to conditions: in the presence of the EC80 of CP55,940 (10 nM).
T1 sequence (P21554 whole entry, the tested form may be a part): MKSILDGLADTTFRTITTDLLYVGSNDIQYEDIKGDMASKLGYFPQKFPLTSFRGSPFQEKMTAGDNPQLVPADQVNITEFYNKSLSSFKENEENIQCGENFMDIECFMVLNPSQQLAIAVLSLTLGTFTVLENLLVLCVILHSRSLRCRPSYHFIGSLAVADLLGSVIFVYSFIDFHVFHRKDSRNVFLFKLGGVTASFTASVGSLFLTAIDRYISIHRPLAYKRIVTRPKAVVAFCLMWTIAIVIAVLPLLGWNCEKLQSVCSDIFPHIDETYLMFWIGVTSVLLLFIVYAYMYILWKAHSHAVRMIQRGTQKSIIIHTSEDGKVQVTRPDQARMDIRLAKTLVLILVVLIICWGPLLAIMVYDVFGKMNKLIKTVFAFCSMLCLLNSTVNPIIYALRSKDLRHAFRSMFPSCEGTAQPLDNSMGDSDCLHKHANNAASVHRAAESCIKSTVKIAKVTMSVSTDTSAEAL
Protocol: The PathHunter® β-Arrestin assay was conducted by Eurofins Pharma Discovery Services (further details can be found at https://www.eurofinsdiscoveryservices.com).
The PathHunter® β-Arrestin assay was conducted by Eurofins Pharma Discovery Services. The assay monitors the activation of a GPCR in a homogenous, non-imaging assay format using a technology developed by DiscoverX called Enzyme Fragment Complementation (EFC) with β-galactosidase (β-Gal) as the functional reporter. Vehicle concentration was 1% DMSO in these assays.
The subject of series [3] is DATKO mice. In words: Open-field test in DATKO mice. As to conditions: 10 mg/kg i.p., 30 min before test.
Series [4] addresses T1, CB1R. The experiment in a line: cell-based.
Series [5] has as its target Dopamine D2 (Homo sapiens, UniProt P14416). In words: SafetyScreen44 panel: Dopamine D2. The series is classed as binding. As to conditions: 1 µM. The procedure:
as §1, §2

Series [6] deals with T2, 5HT3 (Homo sapiens, UniProt P46098).
T2 construct: Eurofins Cerep
T2 sequence (P46098 24-478): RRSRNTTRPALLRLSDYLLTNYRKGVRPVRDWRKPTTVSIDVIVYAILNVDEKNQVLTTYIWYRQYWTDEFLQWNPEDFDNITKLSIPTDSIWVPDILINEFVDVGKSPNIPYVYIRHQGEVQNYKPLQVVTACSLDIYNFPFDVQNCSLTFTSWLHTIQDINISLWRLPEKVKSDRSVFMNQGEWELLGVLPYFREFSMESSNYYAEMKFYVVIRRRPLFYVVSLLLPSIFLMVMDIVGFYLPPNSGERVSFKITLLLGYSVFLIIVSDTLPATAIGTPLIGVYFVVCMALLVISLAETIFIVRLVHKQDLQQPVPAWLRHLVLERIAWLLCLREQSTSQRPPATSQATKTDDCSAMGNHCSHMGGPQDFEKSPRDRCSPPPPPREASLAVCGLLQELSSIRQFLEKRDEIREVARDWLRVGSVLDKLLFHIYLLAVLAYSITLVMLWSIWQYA
The experiment in a line: SafetyScreen44 panel: 5HT3. The format is binding. As to conditions: 1 µM. The procedure: as §1, §2

In series [7] the test system is C57Bl/6J mice. The series is classed as in vivo. As to conditions: 10 mg/kg i.p., 30 min before test, compared to vehicle. The text has this:
(i.p.) before testing. The EPM was composed of 4 opaque-white arms (2 opposite arms closed, 2 opposite arms open), arranged in a plus shape, with an open center. The dimensions were as follows; maze elevation (38.7cm), open arm (L:30.5 cm, W:5 cm, H:0 cm), closed arm (L:30.5 cm, W:5 cm, H:15.2 cm) and center (5 cm x 5 cm). The experiment mouse was placed in the center of the maze and allowed to freely explore the maze for 8-min (50lux), while being tracked with an overhead camera. Open and closed arm times were recorded and collected by Biobserve Viewer3 software. The percentage of time spent in the open arms as compared to closed arms and center time was calculated and expressed as a percent of time spent in the open or closed arms of the maze.

Series [8] in a line: in vitro. The series is classed as in vitro ADME, human. As to conditions: pH 7.4. The procedure: Microsomal stability assays were conducted by Cyprotex Ltd (Macclesfield, UK).
The study of drug stability in the presence of liver microsomes is accepted as a valuable model for permitting rapid prediction of in vivo drug stability (see Kerns & Di, 2008). Microsomal stability studies were performed by Cyprotex Ltd (Macclesfield, UK). […] Microsomes (final protein concentration 0.5 mg/mL), 0.1 M phosphate buffer pH 7.4, and test compound (final concentration 3 μM; diluted from 10 mM stock solution to give a final DMSO concentration of 0.25%) were incubated at 37°C prior to the addition of NADPH (final concentration 1 mM) to initiate the reaction with a final incubation volume of 25 µL. A control incubation was included for each compound tested, where 0.1 M phosphate buffer pH 7.4 was added instead of NADPH. The control compounds testosterone and 7-hydroxycoumarin were included in each experiment and all incubations were performed singularly for each compound. […] Following protein precipitation, the sample supernatants were combined in cassettes of up to 4 compounds and analyzed using standard LC-MS/MS conditions. From a plot of the natural logarithm of the peak area ratio (i.e., the ratio of compound peak area: internal standard peak area) against time, the gradient of the line was determined. Subsequently, half-life and intrinsic clearance were calculated using the equations below: […]

The subject of series [9] is DATKO mice. In words: Pre-pulse inhibition in DATKO mice. As to conditions: 10 mg/kg i.p. The series is classed as in vivo. How it is done: Pre-Pulse Inhibition (PPI): PPI of the acoustic startle response was measured on day 3, via SR-LAB equipment and software from San Diego Instruments. Accelerometers were calibrated to 700±5 mV and output voltages were amplified and analyzed for voltage changes using SR Analysis (San Diego Instruments, San Diego, CA, USA), and exported as an excel file. Background white noise was maintained at 65dB. PPI was measured in a 30-min test with 80 randomized trials of: (1) 10 trials pulse alone (2) 10 trials pre-pulse alone (for each pre-pulse), (3) 10 trials pre-pulse plus pulse (for each pre-pulse), and (4) 10 trials no pulse. 5 pulse alone trials were performed before and after the 80 trials, totaling 90 trials per run. The pre-pulse (4dB, 8dB, or 16dB) was presented 100ms prior to the startle pulse […]. The inter-stimulus interval (ISI) was randomized between 5 and 20s. Experimental mice were placed in a cylindrical tube on a platform in a soundproof chamber. Mice were allowed to acclimatize in the chamber and to the background noise for 300s, followed by 5 consecutive pulse alone trials, then by 80 randomized trials (as described above) and then 5 consecutive pulse alone trials. Pre-pulse inhibition was measured as a decrease in the amplitude of startle response to a 100dB acoustic startle pulse, following each pre-pulse (4dB, 8dB and 16dB).

Dopamine D2, sequence (P14416 other isoform, or with tags, fused parts or gaps): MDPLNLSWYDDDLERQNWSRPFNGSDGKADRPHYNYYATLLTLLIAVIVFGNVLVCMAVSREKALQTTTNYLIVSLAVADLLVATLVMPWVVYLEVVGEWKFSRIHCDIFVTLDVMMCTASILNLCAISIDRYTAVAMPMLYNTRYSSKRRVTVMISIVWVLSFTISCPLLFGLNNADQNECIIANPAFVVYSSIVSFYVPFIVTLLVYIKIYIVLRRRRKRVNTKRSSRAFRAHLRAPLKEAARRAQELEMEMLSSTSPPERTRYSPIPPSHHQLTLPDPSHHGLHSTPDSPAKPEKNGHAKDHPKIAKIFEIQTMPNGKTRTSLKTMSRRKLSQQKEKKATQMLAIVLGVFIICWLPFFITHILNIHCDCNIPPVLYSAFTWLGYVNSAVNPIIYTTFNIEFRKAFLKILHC
Dopamine D1, sequence (P21728 whole entry): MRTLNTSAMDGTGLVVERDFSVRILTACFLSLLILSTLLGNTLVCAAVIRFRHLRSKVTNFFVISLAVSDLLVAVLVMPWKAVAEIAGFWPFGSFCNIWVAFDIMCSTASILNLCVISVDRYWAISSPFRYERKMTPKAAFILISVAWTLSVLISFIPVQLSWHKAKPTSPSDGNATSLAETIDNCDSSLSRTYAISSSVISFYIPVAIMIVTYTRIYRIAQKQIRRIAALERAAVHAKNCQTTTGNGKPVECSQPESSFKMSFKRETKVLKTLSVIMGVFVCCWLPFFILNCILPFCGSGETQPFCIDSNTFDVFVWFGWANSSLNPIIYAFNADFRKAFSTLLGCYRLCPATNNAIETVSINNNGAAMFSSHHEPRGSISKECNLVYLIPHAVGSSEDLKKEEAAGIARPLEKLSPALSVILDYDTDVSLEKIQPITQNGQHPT

As for `CCc1c(-c2nnc(Nc3ccccc3)o2)[nH]c2ccc(Cl)cc12` [ABM300, 5-(5-chloro-3-ethyl-1H-indol-2-yl)-N-phenyl-1,3,4-oxadiazol-2-amine], in series [1], the “binding to Dopamine D1” value was “did not display any significant binding”. In addition, the IC50 in series [2] (read-out: IC50, reduction in β-arrestin recruitment) is 0.0497 µM and 0.05 µM; in series [2] (read-out: pIC50, reduction in β-arrestin recruitment (converted)) it was 0.049 µM; in [4] (read-out: IC50, reduction in ERK1/2 phosphorylation) it was 0.047 µM; in series [4] (read-out: pIC50, reduction in ERK1/2 phosphorylation (converted)) it was 0.0417 µM. In addition, in [3], the “dysregulated hyperactivity (total distance traveled)” value is reported as “normalized”. Further, the stereotypic movements entry in [3] is given as “normalized”. Also, in [3], the vertical exploration result is “normalized”. The “binding to Dopamine D2” value in series [5] is on record as “did not display any significant binding”. In addition, the “binding to 5HT3” value in series [6] was “did not display any significant binding”. Further, the “time spent in the open arms (EPM)” value in series [7] is given as “did not affect”. The compound further registered a half-life at 3 µM in series [8] (microsomes, human liver microsomal preparations) of 1.82 h. In series [8] (human liver microsomes), this compound came in with an intrinsic metabolic clearance (microsomal CLint) at 3 µM of 12.7 ± 3.4 µL/min/mg. Further, in series [9], the “sensorimotor gating deficits (PPI)” value is reported as “rescue of the PPI deficit at the 16 dB pre-pulse interval”. Moreover, in series [9] (data not shown), the acoustic startle response result is recorded as “Neither genotype, nor treatment with ABM300, had an effect”.
